Source: patent publication US11129845B2, “Compositions and methods for the delivery of nucleic acids” (CASE WESTERN RESERVE UNIVERSITY, priority 2014, dated 2021)

What was measured:
[1] = Zeta-potential of siRNA-lipid complexes (Malvern Zetasizer); assay type: physicochemical
Protocol: (§1) The cationic lipid carriers are dissolved in ethanol at a stock concentration of 2.5 mM, while all siRNA is reconstituted in nuclease-free water at a 0.25 μg/μL (18.8 μM) concentration. Nanoparticles are formulated by mixing the carriers with siRNA for a period of 30 min in RNase-free phosphate buffer saline (PBS) at pre-specified N/P ratios (N=number of protonable amines in lipid, P=number of phosphate groups in the siRNA). In preparing the lipoplexes, proper dilutions were made such that the volume ratio of ethanol:water was kept constant at 1:20. Minimizing the amount of ethanol is important because it is effective in dissolving lipids, thus inhibiting particle formation. The diameters (as determined by dynamic light scattering) and zeta potentials of all nanoparticles were analyzed using a Malvern Zetasizer instrument at pH=7.4. siRNA encapsulation efficiency was calculated using a RiboGreen fluorescence-based assay from Invitrogen, designed specifically for detection of free RNA at […] wavelengths of 480 and 520 nm, respectively. Nanoparticles were created with all carriers in the library so that final siRNA concentrations were 1.6 μg/mL. A linear standard curve was utilized to calculate the encapsulation efficiencies from signal intensities measured by a SpectraMax microplate reader (Molecular Devices).

[2] = Nanoparticle diameter and polydispersity by dynamic light scattering (Malvern Zetasizer); assay type: physicochemical; settings: for Nanoparticle diameter as measured by dynamic light scattering: siRNA-lipid complexes
Protocol: as §1

[3] = test system: HT29 colon carcinoma cells; experiment: Cellular uptake of Alexa Fluor 488-siRNA via flow cytometry; assay type: cell-based, human; settings: HT29, N/P=18, 4 h, 100 nM Alexa Fluor 488-siRNA
Protocol: Flow cytometry was used to investigate the cellular uptake of our delivery system in HT29 colon carcinoma cells. All carriers in the library were formulated into nanoparticles by condensing Alexa Fluor 488-labeled siRNA at the optimal N/P ratio determined by the above luciferase knockdown studies. Approximately 50,000 cancer cells were seeded in 6-well plates and allowed to grow until 30-50% confluence was reached. The cancer cells were transfected with a 100 nM siRNA dose in serum-free media. After 4 h, the transfection media were aspirated and the cells were washed twice with PBS. The cells were then trypsinized, collected, and fixed with 2% paraformaldehyde in PBS, prior to flow cytometric analysis.

[4] = test system: CHO-GFP cells; assay type: cell-based, Chinese hamster
Protocol: Cytotoxicity of the carriers was investigated using an MTT colorimetric assay measuring cellular metabolic activity (Invitrogen). The transfection procedure was identical to that presented for the reporter knockdown studies above, except for the fact that 96 well plates were utilized instead, and seeded with 10,000 cells per well. After transfection, the cells were allowed to grow for an additional 48 h. At that point, they were incubated with MTT for 4 h, followed by an additional 4 hour incubation with an SDS-HCl solution to dissolve any insoluble formazan crystals formed by the reduction of MTT by NAD(P)H-dependent enzymes in the cells. The absorbance of each sample was measured at 570 nm using a SpectraMax microplate reader. Cellular viability was calculated by averaging the signal intensities over three replicates and then normalizing the results relative to the negative control data.
The RNAi capabilities of each carrier were investigated by analyzing the silencing of a luciferase (Luc) reporter in HT29 cancer cells after anti-Luc siRNA therapy. To perform this study, we seeded HT29-Luc cells in 12 well plates at a density of 20,000 cells per well. […] Luciferase expression was determined using a Spectra Max luminometer upon the addition of a light-inducing substrate to the collected protein. […]

[5] = test system: luciferase reporter; experiment: Luciferase reporter silencing in HT29-Luc cells; assay type: cell-based, human; settings: HT29, N/P 18, 72 h post-transfection
Protocol: Gene silencing efficiency was investigated in the HT29-Luc cell line by analyzing the expression of a luciferase reporter after anti-Luc siRNA therapy. To perform this study, cancer cells were seeded in 12 well plates at a density of 20,000 cells per well. Transfections were conducted in fresh serum-free media with 100 nM of siRNA when the cells were 25% confluent. The cells continued to grow in normal growth media for an additional 48 and 72 h, at which point they were rinsed twice with PBS and lysed for protein collection. The lysis buffer was a component of a Promega Luciferase Assay kit designed for measuring luciferase expression in the cell lysate. Equally important, the lysis buffer was compatible with the BCA protein assay so that we were able to normalize the luciferase expression in our samples with total protein content. For this silencing study, all synthesized carriers were evaluated at N/P ratios of 8, 10, 12, 14, 16, 18, and 20 to determine the best transfection formulation. Relative luciferase expression was determined for each trial using a SpectraMax luminometer upon the addition of a light-inducing luciferin substrate to the collected protein.
The RNAi capabilities of each carrier were investigated by analyzing the silencing of a luciferase (Luc) reporter in HT29 cancer cells after anti-Luc siRNA therapy. To perform this study, we seeded HT29-Luc cells in 12 well plates at a density of 20,000 cells per well. When 25% confluency, the cells were incubated with fresh serum-free transfection media containing nanoparticles at a dose of 100 nM siRNA. After 4 hours, the media was replaced with fresh complete growth media, so that the cells could continue to grow for an additional 48-72 hours, at which point they were lysed for protein collection. The lysis buffer was compatible with the BCA protein assay so that we could normalize luciferase expression in our samples. Negative controls included cells that were treated with 1) particles encapsulating non-specific siRNA, 2) naked anti-Luc siRNA, or 3) plain serum-free media. Luciferase expression was determined using a Spectra Max luminometer upon the addition of a light-inducing substrate to the collected protein. A similar knockdown experiment was also conducted in non-cancerous CHO cells expressing a GFP reporter. Flow cytometry was utilized to assess the silencing efficiency of the ECO and ECL delivery systems in this cell line. Cytotoxicity of the carriers 48 hours post-transfection was also investigated in both cell lines using an MTT colorimetric assay. […] These RNAi silencing levels surpassed those obtained with a Lipofectamine RNAiMax commercial transfection agent.

[6] = test system: Red blood cells (RBCs); experiment: pH-sensitive hemolytic activity of carrier library; assay type: cell-based, rat; settings: all N/P ratios (5, 10, 15) and pHs (7.4, 6.5, 5.4) tested
Protocol: Hemolytic activity of each carrier was determined to verify the pH-sensitive membrane disruption capabilities of each carrier in the delivery system. Red blood cells (RBCs) extracted from rats were purchased from Innovative Research Inc. (Novi, Mich.) and diluted 1:50 in PBS solutions of pHs=5.4, 6.5, or 7.4. A total of 100 μL of nanoparticles were created at N/P ratios of 5, 10, 15 and then incubated with 100 μL of diluted RBCs at 37° C. for 2 h. Nanoparticles were formulated so that the final amine concentration for all the samples, after mixing with the RBCs, was 150 μM. Multiple pHs were tested to predict if the nanoparticles could disrupt membranes of the endosomal-lysosomal compartments (pH=5-6), without affecting the integrity of the outer cell membrane prior to endocytosis (pH=7.4). The absorbance of each test sample was measured on a SpectraMax spectrophotometer at a wavelength of 540 nm in order to determine the amount of hemoglobin released from the RBCs, due to membrane destabilization, relative to that achieved by a positive control treatment of 1% (v/v) Triton-X100 surfactant during the 2 hour incubation period.

Row | Zeta-potential of siRNA-lipid complexes ([1]; pH = 7.4, N/P = 2) [mV] | Zeta-potential of siRNA-lipid complexes ([1]; pH = 7.4, N/P = 5) [mV] | Zeta-potential of siRNA-lipid complexes ([1]; pH = 7.4, N/P = 8) [mV] | Zeta-potential of siRNA-lipid complexes ([1]; pH = 7.4, N/P = 10) [mV] | Zeta-potential of siRNA-lipid complexes ([1]; pH = 7.4, N/P = 15) [mV] | Polydispersity of siRNA-lipid complexes ([2]; N/P = 2) | Polydispersity of siRNA-lipid complexes ([2]; N/P = 5) | Polydispersity of siRNA-lipid complexes ([2]; N/P = 8) | Polydispersity of siRNA-lipid complexes ([2]; N/P = 10) | Polydispersity of siRNA-lipid complexes ([2]; N/P = 15) | Nanoparticle diameter as measured by dynamic light scattering ([2]; N/P = 2) [nm] | Nanoparticle diameter as measured by dynamic light scattering ([2]; N/P = 5) [nm] | Nanoparticle diameter as measured by dynamic light scattering ([2]; N/P = 8) [nm] | Nanoparticle diameter as measured by dynamic light scattering ([2]; N/P = 10) [nm] | Nanoparticle diameter as measured by dynamic light scattering ([2]; N/P = 15) [nm] | Compound | cellular uptake, mean fluorescence intensity (MFI) [3] | relative cell viability (MTT) [4] [%] | luciferase knockdown (transfection efficiency) [5] [%] | hemolytic activity relative to Triton X-100 [6]
1 | −23.73 ± 2.26 | −17.04 ± 1.32 | 0.49 ± 1.17 | 11.34 ± 1.67 | 24.92 ± 2.89 | 0.299 | 0.197 | 0.167 | 0.112 | 0.127 | 403 ± 35 | 379 ± 28 | 227 ± 20 | 130 ± 14 | 60 ± 11 | CCCCC/C=C\C/C=C\CCCCCCCC(=O)NC(CS)C(=O)NC(Cc1cnc[nH]1)C(=O)NCCNC(=O)CCN(CCN)CCC(=O)NCCNC(=O)C(Cc1cnc[nH]1)NC(=O)C(CS)NC(=O)CCCCCCC/C=C\C/C=C\CCCCC (stereo not drawn) [EHCLn] |  |  |  | 
2 | −32.09 ± 1.65 | −18.5 ± 2.43 | 18.32 ± 1.45 | 21.76 ± 2.31 | 23.94 ± 1.70 | 0.238 | 0.192 | 0.189 | 0.154 | 0.124 | 441 ± 32 | 238 ± 27 | 139 ± 17 | 151 ± 16 | 46 ± 8 | CCCCCCCC/C=C\CCCCCCCC(=O)NC(CS)C(=O)NC(Cc1cnc[nH]1)C(=O)NCCNC(=O)CCN(CCCNCCCCNCCCN)CCC(=O)NCCNC(=O)C(Cc1cnc[nH]1)NC(=O)C(CS)NC(=O)CCCCCCC/C=C\CCCCCCCC (stereo not drawn) [SHCO] | 3580±244 |  |  | 
3 | −32.09 ± 1.65 | 24.02 ± 1.07 | 26.35 ± 1.40 | 25.59 ± 2.22 | 23.80 ± 2.95 | 0.246 | 0.183 | 0.174 | 0.114 | 0.163 | 559 ± 38 | 223 ± 23 | 119 ± 13 | 132 ± 15 | 75 ± 10 | CCCCC/C=C\C/C=C\CCCCCCCC(=O)NC(CS)C(=O)NC(Cc1cnc[nH]1)C(=O)NCCNC(=O)CCN(CCCNCCCCNCCCN)CCC(=O)NCCNC(=O)C(Cc1cnc[nH]1)NC(=O)C(CS)NC(=O)CCCCCCC/C=C\C/C=C\CCCCC (stereo not drawn) [SHCLn] | 4414±413 | 83.3±4.22 |  | 

More lines, now with the values behind:

Row | Compound | Zeta-potential of siRNA-lipid complexes ([1]; pH = 7.4, N/P = 2) [mV] | Zeta-potential of siRNA-lipid complexes ([1]; pH = 7.4, N/P = 5) [mV] | Zeta-potential of siRNA-lipid complexes ([1]; pH = 7.4, N/P = 8) [mV] | Zeta-potential of siRNA-lipid complexes ([1]; pH = 7.4, N/P = 10) [mV] | Zeta-potential of siRNA-lipid complexes ([1]; pH = 7.4, N/P = 15) [mV] | Polydispersity of siRNA-lipid complexes ([2]; N/P = 2) | Polydispersity of siRNA-lipid complexes ([2]; N/P = 5) | Polydispersity of siRNA-lipid complexes ([2]; N/P = 8) | Polydispersity of siRNA-lipid complexes ([2]; N/P = 10) | Polydispersity of siRNA-lipid complexes ([2]; N/P = 15) | Nanoparticle diameter as measured by dynamic light scattering ([2]; N/P = 2) [nm] | Nanoparticle diameter as measured by dynamic light scattering ([2]; N/P = 5) [nm] | Nanoparticle diameter as measured by dynamic light scattering ([2]; N/P = 8) [nm] | Nanoparticle diameter as measured by dynamic light scattering ([2]; N/P = 10) [nm] | Nanoparticle diameter as measured by dynamic light scattering ([2]; N/P = 15) [nm] | cellular uptake, mean fluorescence intensity (MFI) [3] | relative cell viability (MTT) [4] [%] | luciferase knockdown (transfection efficiency) [5] [%] | hemolytic activity relative to Triton X-100 [6]
4 | CCCCCCCC/C=C\CCCCCCCC(=O)NC(CS)C(=O)NC(Cc1cnc[nH]1)C(=O)NCCNC(=O)CCN(CCN)CCC(=O)NCCNC(=O)C(Cc1cnc[nH]1)NC(=O)C(CS)NC(=O)CCCCCCC/C=C\CCCCCCCC (stereo not drawn) [EHCO] | −23.14 ± 2.47 | −14.09 ± 1.88 | 5.54 ± 1.37 | 18.80 ± 1.02 | 22.68 ± 2.08 | 0.276 | 0.195 | 0.165 | 0.122 | 0.161 | 480 ± 30 | 427 ± 25 | 380 ± 18 | 141 ± 15 | 51 ± 10 | 1957±208 |  | 46.4±5.8 | 
5 | CCCCCCCC/C=C\CCCCCCCC(=O)NC(CS)C(=O)NCCNC(=O)CCN(CCCNCCCCNCCCN)CCC(=O)NCCNC(=O)C(CS)NC(=O)CCCCCCC/C=C\CCCCCCCC (stereo not drawn) [SCO] | −29.49 ± 1.33 | 26.60 ± 2.76 | 23.16 ± 1.88 | 23.29 ± 3.11 | 25.16 ± 3.75 | 0.339 | 0.236 | 0.19 | 0.158 | 0.176 | 407 ± 35 | 138 ± 28 | 63 ± 12 | 65 ± 11 | 53 ± 9 |  |  |  | greatest hemolytic activity
